Laboratory results as given in ChEMBL document CHEMBL1128937, “Coumarin-based prodrugs 2. Synthesis and bioreversibility studies of an esterase-sensitive cyclic prodrug of dadle, an opioid peptide” (Bioorg Med Chem Lett, 1996).

System: esterase
Assay: Half-life time was determined for esterase-catalyzed hydrolysis of the phenol ester bond in porcine liver esterase
Type: ADME, Sus scrofa
Details: pig

CC(C)C[C@H]1NC(=O)Oc2ccccc2/C=C\C(=O)NC(=O)[C@H](Cc2ccc(O)cc2)NC(=O)[C@@H](C)NC(=O)CNC(=O)[C@H](Cc2ccccc2)NC1=O
half-life: 12.7 h
